Measured values reported in patent publication US10357460B2, “Particulate comprising a calcium-containing compound and a sugar alcohol” (Takeda Nycomed AS, priority 2004, dated 2019).

Key:
[1] = Compactability of sugar alcohols compressed alone; type: physicochemical; details: tablets of sugar alcohol alone; FIG. 19
Protocol: Tablets comprising sorbitol 110 μm, sorbitol 38 μm, isomalt 27 μm, maltitol, mannitol or xylitol were compressed on an instrumented Fette Exacta 1/F single punch tablet press, only maximum compression force on the upper punch was recorded.
Before the compression of each tablet the punch tips and the die bore were lubricated with a 5% suspension of magnesium stearate in acetone. The acetone was allowed to evaporate before compression of the tablet.
The sugar alcohol was weighed, transferred to the die bore and then compressed, see Table 14. Immediately after ejection the tablet was tested for crushing strength.

[2] = Crushing strength versus tablet compression force, calcium carbonate/sugar alcohol tablets (Example 11); details: for tendency of capping: observed during the experiment
From the text: In all the below described experiments 1-24 the amount of calcium salt is 76.22% w/w of the final tablet mass, the amount of sugar alcohol is 23.78% w/w, with the exception of experiments 4 and 20 at which the 23.78% w/w of sugar alcohol is replaced with 14.63% w/w of sugar alcohol and 9.15% w/w of Precirol.
The calcium salt and the sugar alcohol are mixed in a total amount of 6 kg in a Fielder high shear mixer. The sugar alcohol is sieved through sieve size 300 μm prior to mixing. The mixing of 6 kg is done twice and the total yield of 12 kg is mixed in a planetary mixer. Thereafter, the mixtures are roller compacted (intra granular sugar alcohol) using the following values for GW, F, RS and screen size. (For the experiments 25-26 the sugar alcohol is admixed by hand after roller compaction has been carried out (extra granular sugar alcohol)).
The compactate is admixed with 0.34% w/w of magnesium stearate.
Compression is carried out on a Fette 1090 using a 18.9 mm×9.4 mm capsule shaped punch design and a theoretical tablet mass of 1683 mg. […] The crushing strength has been measured by use of a Schleuniger Autotest 4 and n=20.

[3] = Tablet hardness as a function of compression pressure (Schleuniger AT4); type: physicochemical
From the text: Sorbitol was lump breaked in a Cone Mill (Quadro U20) and afterwards premixed with Calcium Carbonate in a high-shear mixer (Diosna P250 at low impeller speed and no chopper) for 60 sec.
The premix was granulated on a roller compactor (Gerteis 3W-Polygran), and the compacted granules was then mixed with Povidone K30, Aspartame, D3 Vitamin and Flavour in a high-shear mixer (Diosna P250 at low impeller speed and no chopper) for 60 sec. Finally, lubrication with Magnesium Stearate was done a high-shear mixer (Diosna P250 at low impeller speed and no chopper) for 25 sec.
The roller compaction was based on a setup with knurled rollers and control. The key set up parameters are: Gap Width (GW), Force (F), Roller Speed (RS) and screen size.
Tablet weight was approximately 1,750 mg. All in-process weight and hardness data are obtained using a Schleuniger AT4.

treated patients = details: annual injections of 150.000-300.000 IU; cited from earlier work
pre-menopausal women = details: 1200 mg of calcium supplements daily, three menstrual cycles; placebo 48%; cited from earlier work

| Compound | compactability (slope of compression force versus crushing strength) [1] | tendency of capping [2] | further results |
| --- | --- | --- | --- |
| Glycerol distearat Type I EP [Precirol] | – | – | crushing strength ([2]; addition of Precirol to xylitol 34 μm, FIG. 11): increases the crushing strength |
| vitamin D | – | – | overall fracture rate (treated patients): significant reduction; rate of hip fracture (treated patients): not in the rate of hip fracture |
| Isomalt | Sorbitol is followed by isomalt | – | – |
| [Ca] [calcium] | – | – | women with PMS related symptoms (pre-menopausal women): 30% |

More lines, main results first:

| compactability (slope of compression force versus crushing strength) [1] | tendency of capping [2] | Compound | further results |
| --- | --- | --- | --- |
| very poor compactability | tendency of capping | OC[C@@H](O)[C@H](O)[C@@H](O)CO [xylitol, Xylitol] | – |
| very poor compactability | tendency of capping | OC[C@@H](O)[C@@H](O[C@H]1O[C@H](CO)[C@@H](O)[C@H](O)[C@H]1O)[C@H](O)[C@@H](O)CO [maltitol, Maltitol] | binding properties (tablet hardness) ([3]; maltitol versus sorbitol 38 μm as binder, capsule shaped 9.4 mm*18.9 mm, FIG. 7): does not impart as good binding properties |
| best compactability | – | OC[C@@H](O)[C@@H](O)[C@H](O)[C@@H](O)CO [sorbitol, Sorbitol] | tablet hardness ([3]; decreasing size of sorbitol (110, 38, 11 μm), fixed compression force, 14 mm round tablets, FIG. 4): markedly increased tablet hardness; tablet hardness ([3]; presence of sorbitol compared to tablets consisting solely of calcium carbonate, FIG. 1): increased tablet hardness values |
| very poor compactability | tendency of capping | OC[C@@H](O)[C@@H](O)[C@H](O)[C@H](O)CO [mannitol, Mannitol] | – |
